Laboratory results reported in patent US7064143B1, “Positive modulators of nicotinic receptor agonists” (AstraZeneca AB, priority 2000, dated 2006).

SMILES	melting point
Cn1c(C(=O)NC(CF)Cc2ccccc2)cc2c(O)cccc21 (single isomer, unassigned; (+)) [Example 29, (+)-N-(1-Fluoromethyl-2-phenylethyl)4-hydroxy-1-methyl-1H-indole-2-carboxamide]	157 to 158 °C
Cn1c(C(=O)NC(CF)Cc2ccccc2)cc2c(O)cccc21 (centres unmarked) [Example 23, N-(1-Fluoromethyl-2-phenylethyl) 4-hydroxy-1-methyl-1H-indole-2-carboxamide]	163.5 to 165.5 °C
